Measured values taken from patent US9198420B2, “Rodenticidal norbormide analogues” (priority 2012, dated 2015).
Where two headings read alike, the source gives them in different places. Marks after values point to notes of the source that are not given here.

Experiments:
Sprague Dawley rats [1] = assay: Palatability (no-choice) trial, peanut butter bait; assay type: in vivo, rat (Sprague Dawley); conditions: 1% w/w toxicant in peanut butter bait; for mortality at 1 %: po
Description: In the palatability trials, Sprague Dawley rats (ca. 250 g) were presented with 1% w/w compound (n=6) or 0.5% w/w compound (n=5) in a peanut butter bait, following 3 days ‘pre-baiting’ with a peanut butter formulation free of toxicant.

Sprague Dawley rats [2] = assay: In vivo lethality, oral gavage; parameters: species or system rat (Sprague Dawley); conditions: rat; for Time to Death (min) / Onset of Symptoms: mean time; for Onset of Symptoms: visual signs of distress consistent with NRB-like symptoms; for In vivo lethality (oral): n = 2
Outline: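 Sprague Dawley rats (150-200 g) received compound dissolved in 0.2 M HCl (5% DMSO overall) at the desired dose, by oral gavage or tail-vein i.v. injection. Animals were watched for early toxicity signs every minute (i.v.) or every 15 min (oral).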

Sprague Dawley rats [3] = assay: In vivo lethality, intravenous injection via the tail; parameters: species or system rat (Sprague Dawley); conditions: 20 mg/Kg, rat, n = 2
Experimental: Sprague Dawley rats (150-200 g) were used to appraise the rodenticidal activity of the compounds put forward for in vivo evaluation. Briefly, prior to administration the compounds were dissolved in 0.2 M hydrochloric acid (5% DMSO overall), to the desired dose, and without delay either injected intravenously, via the tail, or orally gavaged. All treated animals were housed in a quiet room and monitored every minute (i.v) or every 15 min (oral) to verify early signs of toxicity.

Sprague Dawley rats [4] = assay: Palatability (choice) trial, peanut butter bait; assay type: in vivo, rat (Sprague Dawley); conditions: 2 days
rat caudal artery = assay: Rat caudal artery ring contractile force (vasoconstrictory activity); parameters: species or system rat (male Wistar); conditions: for Emax: Table 1, read-out: Vasoconstriction: maximum contractile effect as a % of 90 mM KCl contraction
Outline: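 Endothelium-denuded caudal artery rings from male Wistar rats were held at 2 g resting tension in Tyrode solution (37° C, pH 7.35, 95% O2/CO2) and isometric force was recorded. Compounds were tested at 50 μM, with contraction expressed as percent of the 90 mM KCl response.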

[5] = Rat serum assay (release of NRB or NRB analogue); assay type: in vitro ADME; conditions: 80% rat serum, 37° C., 3 h, n = 3
Experimental: The hydrolytic stability of compounds of the invention in rat blood was evaluated using in vitro rat serum obtained from Sigma-Aldrich and stored at −78° C. Similar assay conditions to those reported by Li Di and co-workers (Int. J. Pharm. 2005, 297, 110-119) were followed [200 μL total volume, 80% rat serum (diluting with phosphate buffer (0.1 M, pH 7.4)), at a final compound concentration of 200 μM, 2.5% DMSO overall, 37° C., 3 h, n=3] using an Eppendorf Thermomixer Compact. Reactions were quenched by transferring 150 μL of the incubation mixture to 450 μL of ice-cold acetonitrile, affording a final compound/NRB or NRB analogue concentration of 50 μM. Samples were centrifuged at 14,500×g for 15 min using an Eppendorf Mini Spin Plus centrifuge, at ambient temperature. 400 μL of the supernatant was removed and transferred to clean tubes. Analysis was by RP-LCMS at an injection volume of 20 μL. Each compound and corresponding NRB or NRB analogue were subjected to external calibration curves at 50 μM, 100 μM and 200 μM to allow conversion of absorbance unit area into nmol, from which the percentage of NRB or NRB analogue released from each compound was calculated.

[6] = Simulated gastric fluid (SGF) hydrolytic stability assay; assay type: physicochemical; conditions: footnote c: compounds not exhibiting vasoconstriction; simulated gastric fluid without pepsin, pH 1.2, 37° C., 1 h, n = 3
Experimental: All in vivo candidates were subjected to a 1 h hydrolytic stability appraisal in the presence of SGF, without pepsin (United States Pharmacopoeia 24) [200 μL total volume, sodium chloride solution (0.03 M) acidified to pH 1.2 with concentrated hydrochloric acid, at a final compound concentration of 200 μM, 2.5% DMSO overall, 37° C., n=3], to investigate any potential chemical instabilities that may occur in the acidic environment of the stomach prior to uptake. Analysis was by RP-LCMS at an injection volume of 5 μL.

[7] = choice of EPA diet (20 g) and bait with 1% w/w toxicant (20 g), n = 12, Table 14
[8] = choice of standard lab pellets (20 g) and bait with 1% w/w toxicant (20 g), n = 12, Table 13
[9] = choice of EPA diet (20 g) and bait with 1% w/w toxicant (20 g), n = 2, Table 15
[10] = n = 6, 3 male and 3 female rats, Table 11, read-out: No of deaths (converted)

Structure (SMILES) | Time to Death (min) (Sprague Dawley rats [2]; 20 mg/Kg) | Onset of Symptoms (Sprague Dawley rats [2]; 20 mg/Kg) [min] | In vivo lethality (oral) (Sprague Dawley rats [2]; 40 mg/Kg) | Emax (rat caudal artery) [%] | Vasoconstriction: maximum contractile effect as a % of 90 mM KCl contraction (rat caudal artery; Table 4, pre-cleavage, n = 3) [%] | No of deaths (Sprague Dawley rats [4]; [9]) | melting point [°C] | further results
O=C(C=Cc1ccccc1)OCN1C(=O)C2C3C=C(C(O)(c4ccccc4)c4ccccn4)C(C3=C(c3ccccc3)c3ccccn3)C2C1=O (stereo not drawn) [Compound 19, N-Cinnamoyloxymethyl-5-(α-hydroxy-α-2-pyridylbenzyl)-7-(α-2-pyridylbenzylidene)-5-norbornene-2,3-dicarboximide] | 90^d min | 20 | yes^h,i | 0 | 0 | – | – | No of deaths (Sprague Dawley rats [1]; n = 6, male rats only, Table 10): 5/5^b; In vivo lethality (oral) (Sprague Dawley rats [2]; 20 mg/Kg): yes^h,i; In vivo lethality (i.v.) (Sprague Dawley rats [3]): yes^f; No of deaths (Sprague Dawley rats [4]; [7]): 1/12; No of deaths (Sprague Dawley rats [4]; [8]): 2/12
CC(=Cc1ccccc1)C(=O)OCCN1C(=O)C2C3C=C(C(O)(c4ccccc4)c4ccccn4)C(C3=C(c3ccccc3)c3ccccn3)C2C1=O (stereo not drawn) [Compound 121, 5-(α-Hydroxy-α-2-pyridylbenzyl)-N-2′-α-methylcinnamoyloxyethyl-7-(α-2-pyridylbenzylidene)-5-norbornene-2,3-dicarboximide] | not lethal | 20 | – | – | 0 | 3/12 | – | % NRB released, Rat Serum [5]: 19.1 ± 1.3%; % NRB released, Hydrolytic Stability (simulated gastric fluid) [6]: 0^c %; No of deaths (Sprague Dawley rats [1]; n = 6, 3 male and 3 female rats, Table 11): 6/6; Vasoconstriction: maximum contractile effect as a % of 90 mM KCl contraction (rat caudal artery; Table 1, compound at 50 μM): 0%
COc1ccccc1C=CC(=O)OCCN1C(=O)C2C3C=C(C(O)(c4ccccc4)c4ccccn4)C(C3=C(c3ccccc3)c3ccccn3)C2C1=O (stereo not drawn) [Compound 124, 5-(α-Hydroxy-α-2-pyridylbenzyl)-N-[2′-(2″-methoxycinnamoyloxy)ethyl]-7-(α-2-pyridylbenzylidene)-5-norbornene-2,3-dicarboximide] | – | – | – | 23 | – | – | 101 to 108 | –
COc1ccc(C=CC(=O)OCCN2C(=O)C3C4C=C(C(O)(c5ccccc5)c5ccccn5)C(C4=C(c4ccccc4)c4ccccn4)C3C2=O)cc1 (stereo not drawn) [Compound 126, 5-(α-Hydroxy-α-2-pyridylbenzyl)-N-[2′-(4″-methoxycinnamoyloxy)ethyl]-7-(α-2-pyridylbenzylidene)-5-norbornene-2,3-dicarboximide] | 50^d min | 25 | yes^h,i | 0 | 0 | – | – | mortality at 1 % (Sprague Dawley rats [1]; n = 6, male rats only, Table 10, read-out: No of deaths (converted)): 83.3%; In vivo lethality (oral) (Sprague Dawley rats [2]; 20 mg/Kg): yes^h,i; In vivo lethality (i.v.) (Sprague Dawley rats [3]): yes^f; No of deaths (Sprague Dawley rats [4]; [7]): 8/11^b; No of deaths (Sprague Dawley rats [4]; [8]): 10/12
O=C(C=Cc1ccc(OC(F)(F)F)cc1)OCCN1C(=O)C2C3C=C(C(O)(c4ccccc4)c4ccccn4)C(C3=C(c3ccccc3)c3ccccn3)C2C1=O (stereo not drawn) [Compound 127, 5-(α-Hydroxy-α-2-pyridylbenzyl)-7-(α-2-pyridylbenzylidene)-N-[2′-(4″-trifluoromethoxycinnamoyloxy)ethyl]-5-norbornene-2,3-dicarboximide] | – | – | – | 0 | 0 | – | 100 to 105 | –
O=C(C=Cc1ccc([N+](=O)[O-])cc1)OCCN1C(=O)C2C3C=C(C(O)(c4ccccc4)c4ccccn4)C(C3=C(c3ccccc3)c3ccccn3)C2C1=O (stereo not drawn) [Compound 130, 5-(α-Hydroxy-α-2-pyridylbenzyl)-N-[2′-(4″-nitrocinnamoyloxy)ethyl]-7-(α-2-pyridylbenzylidene)-5-norbornene-2,3-dicarboximide] | – | – | – | 20 | – | – | 105 to 110 | –
COc1cc(C=CC(=O)OCCN2C(=O)C3C4C=C(C(O)(c5ccccc5)c5ccccn5)C(C4=C(c4ccccc4)c4ccccn4)C3C2=O)cc(OC)c1OC (stereo not drawn) [Compound 133, 5-(α-Hydroxy-α-2-pyridylbenzyl)-7-(α-2-pyridylbenzylidene)-N-[2′-(3″,4″,5″-trimethoxycinnamoyloxy)ethyl]-5-norbornene-2,3-dicarboximide] | – | – | – | 30 | – | – | 109 to 113 | –
O=C(C=Cc1ccc(Cl)c(Cl)c1)OCCN1C(=O)C2C3C=C(C(O)(c4ccccc4)c4ccccn4)C(C3=C(c3ccccc3)c3ccccn3)C2C1=O (stereo not drawn) [Compound 134, N-[2′-(3″,4″-Dichlorocinnamoyloxy)ethyl]-5-(α-hydroxy-α-2-pyridylbenzyl)-7-(α-2-pyridylbenzylidene)-5-norbornene-2,3-dicarboximide] | – | – | – | 0 | 0 | – | 99 to 104 | –
Cc1ccc(CC(=O)OCN2C(=O)C3C4C=C(C(O)(c5ccccc5)c5ccccn5)C(C4=C(c4ccccc4)c4ccccn4)C3C2=O)cc1 (stereo not drawn) [Compound 324, 5-(α-Hydroxy-α-2-pyridylbenzyl)-N-4-methylphenylacetoyloxymethyl-7-(α-2-pyridylbenzylidene)-5-norbornene-2,3-dicarboximide] | 60^d min | 15 | yes^h,i | 17 | 17 | 5/12 | – | mortality at 1 % (Sprague Dawley rats [1]; [10]): 100%; In vivo lethality (oral) (Sprague Dawley rats [2]; 20 mg/Kg): yes^h,i
CCc1ccc(C=CC(=O)OCCN2C(=O)C3C4C=C(C(O)(c5ccccc5)c5ccccn5)C(C4=C(c4ccccc4)c4ccccn4)C3C2=O)cc1 (stereo not drawn) [Compound 335, N-[2′-(4″-Ethylcinnamoyloxy)ethyl]-5-(α-hydroxy-α-2-pyridylbenzyl)-7-(α-2-pyridylbenzylidene)-5-norbornene-2,3-dicarboximide] | 90^e min | 15 | yes^h | 19 | 19 | 7/12 | – | mortality at 1 % (Sprague Dawley rats [1]; [10]): 100%
O=C1NC(=O)C2C3C(C(O)(c4ccccc4)c4ccccn4)=CC(C3=C(c3ccccc3)c3ccccn3)C12 (stereo not drawn) [NRB, 5-(α-Hydroxy-α-2-pyridylbenzyl)-7-(α-2-pyridylbenzylidene)-5-norbornene-2,3-dicarboximide, reference compound] | – | – | – | 132 | – | 5/12 | – | No of deaths (Sprague Dawley rats [4]; [7]): 2/12; No of deaths (Sprague Dawley rats [4]; [8]): 5/12; Vasoconstriction: maximum contractile effect as a % of 90 mM KCl contraction (rat caudal artery; Table 5, compounds of formula (III)): ^aMaximum contractile effect as a % of 90 mM KCl contraction (rat caudal artery); stereoisomeric mixture of NRB = 132%.; Vasoconstriction: maximum contractile effect as a % of 90 mM KCl contraction (rat caudal artery; Table 7, compounds of formula (V)): ^aMaximum contractile effect as a % of 90 mM KCl contraction (rat caudal artery); stereoisomeric mixture of NRB = 132%.
